Measurements from PMC5363373, “Zirconium tetraazamacrocycle complexes display extraordinary stability and provide a new strategy for zirconium-89-based radiopharmaceutical development” (Chemical Science, 2016).

What was measured:
[1] = In vitro metal competition study; assay type: physicochemical; details: PBS pH 7.4, 37 C
Description: In vitro Metal Competition study. To a solution of metal cations [iron (III) chloride, cobalt (II) chloride, zinc (II) chloride, copper (II) chloride, magnesium (II) chloride, gallium (III) nitrate, gadolinium (III) chloride] (1 mM, 200 µL), was added 89Zr-labeled complex (0.1 mM, 10 µL, 80 μCi, 2.96 MBq) in PBS, pH 7.4. The resulting solutions (n = 3) were incubated at 37 °C for 7 days in a thermomixer. Dissociation of 89Zr from 89Zr-complexes was monitored by radio-TLC at 2 h, 1 d, 4 d and 7 d time point. All studies were performed in triplicate.

[2] = In vitro serum stability (radio-ITLC); assay type: in vitro ADME; details: 37 C, after 7 days
Description: In vitro serum stability. In vitro serum stability was carried out by adding 10 µL of each 89Zr-labeled complex (70 μCi, 2.59 MBq) to 500 µL of human serum. The solutions (n=4) were incubated at 37 °C for 7 days and were analyzed daily for 1 week by radio -TLC using Varian ITLC-SA strips and 0.1 M EDTA (pH 5) as the mobile phase and gamma counting using an energy window of 500-1500 keV and standard protocols . Serum samples were also analyzed after 7 days by size exclusion chromatography (SEC) using a Superdex 200 10/300 GLTM column (GE Healthcare Life Sciences, Piscataway, NJ) and phosphate buffered saline (PBS) as eluent with a flow rate of 0.5 mL/min.
Figure S30. Radio-ITLC of 89Zr-DOTA solution in human serum at 37 °C after 0 h (a) and 7 days (b). […]

[3] = In vitro EDTA challenge study; assay type: physicochemical
Description: In vitro EDTA challenge study. In vitro EDTA challenge study was carried out by adding 10 µL of each 89Zr-labeled complex (70 μCi, 2.59 MBq) to 500 µL of EDTA (10 mM, 50 mM and 100 mM: pH 5 and pH 7) with a 1:100, 1:500, and 1:1000 ratio of ligand/EDTA. The solutions (n=4) were incubated at 37 °C for 7 days in a thermomixer. Samples were analyzed at 30 min, 1 h, 3 h, 6 h, 1 d, 3 d, 5 d and 7 d post administration to EDTA by radio-TLC using Varian ITLC-SA strips and 0.1 M EDTA (pH 5) as the mobile phase and gamma counting using an energy window of 500-1500 keV and standard protocols .

Biodistribution studies = assay type: in vivo, female NIH Swiss mice; details: mice
Description: Biodistribution Studies. Biodistribution studies were conducted using a modified literature procedure. 7 Briefly, female NIH Swiss mice (6-8 wk old, n=6) were injected with each 89Zr-labeled complex (0.55 MBq (15 μCi)/mouse) via the tail vein, and sacrificed at 2, 4, 24, 48, 72 h post-injection. Organs and tissues of interest were excised, weighted, and counted on a Perkin Elmer 2480 Wizard® gamma counter (Waltham, MA). The percent injected dose per gram (%ID/g) and percent injected dose per organ (%ID/organ) were calculated by comparison to a weighed, counted standard for each group (Tables S9 – S12).
Statistical Methods. All of the data are presented as mean±SD or mean (95% Confidence Interval). For statistical classification a student’s t test (two-tailed, unpaired) was performed using GraphPad Prism (San Diego, CA). Any p<0.05 was considered significant.

[4] = intravenous, 72 h post-injection

% Intact of 89Zr-complexes ([1]; Co2+, 2 h): 99.2 ± 0.2%
% Intact of 89Zr-complexes ([1]; Co2+, 1 d): 98.3 ± 0.4%
% Intact of 89Zr-complexes ([1]; Co2+, 4 d): 98.1 ± 0.3%
% Intact of 89Zr-complexes ([1]; Co2+, 7 d): 95.4 ± 0.9%
% Intact of 89Zr-complexes ([1]; Cu2+, 2 h): 98.9 ± 0.5%
% Intact of 89Zr-complexes ([1]; Cu2+, 1 d): 98.6 ± 0.4%
% Intact of 89Zr-complexes ([1]; Cu2+, 4 d): 97.3 ± 0.7%
% Intact of 89Zr-complexes ([1]; Cu2+, 7 d): 96.0 ± 1.0%
% Intact of 89Zr-complexes ([1]; Fe3+, 2 h): 96.5 ± 0.2%
% Intact of 89Zr-complexes ([1]; Fe3+, 1 d): 76.1 ± 1.3%
% Intact of 89Zr-complexes ([1]; Fe3+, 4 d): 53.2 ± 3.8%
% Intact of 89Zr-complexes ([1]; Fe3+, 7 d): 33.9 ± 1.5%
% Intact of 89Zr-complexes ([1]; Fe3+, 7 d, listed as 89Zr–DFO): 33.9%
% Intact of 89Zr-complexes ([1]; Ga3+, 2 h): 99.3 ± 0.2%
% Intact of 89Zr-complexes ([1]; Ga3+, 1 d): 93.4 ± 2.6%
% Intact of 89Zr-complexes ([1]; Ga3+, 4 d): 81.1 ± 0.5%
% Intact of 89Zr-complexes ([1]; Ga3+, 7 d): 72.6 ± 1.3%
% Intact of 89Zr-complexes ([1]; Ga3+, 7 d, listed as 89Zr–DFO): 72.6%
% Intact of 89Zr-complexes ([1]; Gd3+, 2 h): 99.4 ± 0.3%
% Intact of 89Zr-complexes ([1]; Gd3+, 1 d): 98.8 ± 0.1%
% Intact of 89Zr-complexes ([1]; Gd3+, 4 d): 98.4 ± 0.3%
% Intact of 89Zr-complexes ([1]; Gd3+, 7 d): 96.8 ± 0.2%
% Intact of 89Zr-complexes ([1]; Mg2+, 2 h): 99.3 ± 0.1%
% Intact of 89Zr-complexes ([1]; Mg2+, 1 d): 98.6 ± 0.5%
% Intact of 89Zr-complexes ([1]; Mg2+, 4 d): 97.6 ± 0.8%
% Intact of 89Zr-complexes ([1]; Mg2+, 7 d): 96.8 ± 1.2%
% Intact of 89Zr-complexes ([1]; Zn2+, 2 h): 99.5 ± 0.1%
% Intact of 89Zr-complexes ([1]; Zn2+, 1 d): 98.8 ± 0.3%
% Intact of 89Zr-complexes ([1]; Zn2+, 4 d): 97.7 ± 0.6%
% Intact of 89Zr-complexes ([1]; Zn2+, 7 d): 95.9 ± 0.7%
Radio-ITLC peak of complex in human serum [2]: 100%
% Intact of 89Zr-complexes ([3]; EDTA 100-fold, pH 5.0, 37 C, 30 min): 93.0 ± 0.7%
% Intact of 89Zr-complexes ([3]; EDTA 100-fold, pH 5.0, 37 C, 1 h): 85.5 ± 0.9%
% Intact of 89Zr-complexes ([3]; EDTA 100-fold, pH 5.0, 37 C, 3 h): 59.6 ± 0.8%
% Intact of 89Zr-complexes ([3]; EDTA 100-fold, pH 5.0, 37 C, 6 h): 29.4 ± 0.7%
% Intact of 89Zr-complexes ([3]; EDTA 100-fold, pH 5.0, 37 C, 1 d): 6.6 ± 0.3%
% Intact of 89Zr-complexes ([3]; EDTA 100-fold, pH 5.0, 37 C, 3 d): 5.4 ± 0.3%
% Intact of 89Zr-complexes ([3]; EDTA 100-fold, pH 5.0, 37 C, 5 d): 4.4 ± 0.2%
% Intact of 89Zr-complexes ([3]; EDTA 100-fold, pH 5.0, 37 C, 7 d): 3.6 ± 0.1%
% Intact of 89Zr-complexes ([3]; EDTA 100-fold, pH 7.0, 37 C, 30 min): 99.0 ± 0.4%
% Intact of 89Zr-complexes ([3]; EDTA 100-fold, pH 7.0, 37 C, 1 h): 96.6 ± 1.1%
% Intact of 89Zr-complexes ([3]; EDTA 100-fold, pH 7.0, 37 C, 3 h): 90.3 ± 0.8%
% Intact of 89Zr-complexes ([3]; EDTA 100-fold, pH 7.0, 37 C, 6 h): 89.4 ± 0.2%
% Intact of 89Zr-complexes ([3]; EDTA 100-fold, pH 7.0, 37 C, 1 d): 88.6 ± 0.2%
% Intact of 89Zr-complexes ([3]; EDTA 100-fold, pH 7.0, 37 C, 3 d): 87.2 ± 0.6%
% Intact of 89Zr-complexes ([3]; EDTA 100-fold, pH 7.0, 37 C, 5 d): 86.6 ± 0.3%
% Intact of 89Zr-complexes ([3]; EDTA 100-fold, pH 7.0, 37 C, 7 d): 83.9 ± 0.5%
% Intact of 89Zr-complexes ([3]; EDTA 500-fold, pH 5.0, 37 C, 30 min): 60.9 ± 1.0%
% Intact of 89Zr-complexes ([3]; EDTA 500-fold, pH 5.0, 37 C, 1 h): 33.9 ± 1.2%
% Intact of 89Zr-complexes ([3]; EDTA 500-fold, pH 5.0, 37 C, 3 h): 3.9 ± 0.4%
% Intact of 89Zr-complexes ([3]; EDTA 500-fold, pH 5.0, 37 C, 6 h): 0%
% Intact of 89Zr-complexes ([3]; EDTA 500-fold, pH 7.0, 37 C, 30 min): 90.3 ± 0.7%
% Intact of 89Zr-complexes ([3]; EDTA 500-fold, pH 7.0, 37 C, 1 h): 81.1 ± 1.1%
% Intact of 89Zr-complexes ([3]; EDTA 500-fold, pH 7.0, 37 C, 3 h): 58.6 ± 0.3%
% Intact of 89Zr-complexes ([3]; EDTA 500-fold, pH 7.0, 37 C, 6 h): 42.7 ± 1.2%
% Intact of 89Zr-complexes ([3]; EDTA 500-fold, pH 7.0, 37 C, 1 d): 36.2 ± 0.7%
% Intact of 89Zr-complexes ([3]; EDTA 500-fold, pH 7.0, 37 C, 3 d): 31.8 ± 1.1%
% Intact of 89Zr-complexes ([3]; EDTA 500-fold, pH 7.0, 37 C, 5 d): 30.4 ± 0.9%
% Intact of 89Zr-complexes ([3]; EDTA 500-fold, pH 7.0, 37 C, 7 d): 28.5 ± 0.4%
% Intact of 89Zr-complexes ([3]; EDTA 1000-fold, pH 5.0, 37 C, 30 min): 37.7 ± 1.1%
% Intact of 89Zr-complexes ([3]; EDTA 1000-fold, pH 5.0, 37 C, 1 h): 14.6 ± 0.7%
% Intact of 89Zr-complexes ([3]; EDTA 1000-fold, pH 5.0, 37 C, 3 h): 0%
% Intact of 89Zr-complexes ([3]; EDTA 1000-fold, pH 7.0, 37 C, 30 min): 85.6 ± 1.1%
% Intact of 89Zr-complexes ([3]; EDTA 1000-fold, pH 7.0, 37 C, 1 h): 68.3 ± 1.2%
% Intact of 89Zr-complexes ([3]; EDTA 1000-fold, pH 7.0, 37 C, 3 h): 45.4 ± 0.7%
% Intact of 89Zr-complexes ([3]; EDTA 1000-fold, pH 7.0, 37 C, 6 h): 32.9 ± 0.5%
% Intact of 89Zr-complexes ([3]; EDTA 1000-fold, pH 7.0, 37 C, 1 d): 28.1 ± 0.7%
% Intact of 89Zr-complexes ([3]; EDTA 1000-fold, pH 7.0, 37 C, 3 d): 24.5 ± 0.8%
% Intact of 89Zr-complexes ([3]; EDTA 1000-fold, pH 7.0, 37 C, 5 d): 21.4 ± 1.2%
% Intact of 89Zr-complexes ([3]; EDTA 1000-fold, pH 7.0, 37 C, 7 d): 20.3 ± 0.5%
Loss of metal ions in EDTA challenge ([3]; after 3 h incubation, 1000-fold excess of EDTA at pH 5): completely lost metal ions
Radioactivity in blood (Biodistribution studies; [4]): 0.0003 ± 0.0005 % ID per g
Radioactivity in bone (Biodistribution studies; [4]): 0.079 ± 0.014 % ID per g
Radioactivity in kidney (Biodistribution studies; [4]): 0.69 ± 0.098 % ID per g
Radioactivity in liver (Biodistribution studies; [4]): 0.066 ± 0.009 % ID per g
Radioactivity retention in bone tissue over time (Biodistribution studies; time points up to 72 h): increases over time
Compound: CC(=O)N1CCCCCNC(=O)CCC(=O)N2CCCCCNC(=O)CCC(=O)N(CCCCCN)[O][89Zr+]([O]1)[O]2 [89Zr-DFO, reference compound]
